PMC12360161, “Identifying 14-3-3 interactome binding sites with deep learning” (Digital Discovery, 2025)
Like-named read-outs stand apart in the source and are kept apart here. Where a SMILES comes first, the peptide text is derived from it. Where no end group is shown, it is not given here. [ ]: non-standard residue; d: D form. The star is where a group is joined. 5FAM = O=C1OC2(c3ccc(O)cc3Oc3cc(O)ccc32)c2ccc(C(=O)*)cc21; pT = C[C@@H](OP(=O)(O)O)[C@H](N)C(=O)O; pS = N[C@@H](COP(=O)(O)O)C(=O)O; Ahx = NCCCCCC(=O)O

Key:
[1] = target: T1, full-length (FL) human 14-3-3γ protein (Homo sapiens, UniProt P61981); assay: Fluorescence anisotropy (FA) assay of FAM-labeled peptides binding to 14-3-3γ; settings: for Kd: 14-3-3γ FL dilution series (starting at 500 μM) to 10 nM FAM-labeled peptide, 10 mM HEPES pH 7.4, 150 mM NaCl, 0.1% Tween20, 1 mg/mL BSA, room temperature, Hill fit, mean ± SD; for Binding in the FA assay (in words): 14-3-3γ, 10 nM FAM-labeled peptide
T1 construct: The full-length (FL) human 14-3-3γ protein was expressed from a pPROEX plasmid; His6; made in house; host or cells: E. coli BL21(DE3)
T1 sequence (P61981 1-247): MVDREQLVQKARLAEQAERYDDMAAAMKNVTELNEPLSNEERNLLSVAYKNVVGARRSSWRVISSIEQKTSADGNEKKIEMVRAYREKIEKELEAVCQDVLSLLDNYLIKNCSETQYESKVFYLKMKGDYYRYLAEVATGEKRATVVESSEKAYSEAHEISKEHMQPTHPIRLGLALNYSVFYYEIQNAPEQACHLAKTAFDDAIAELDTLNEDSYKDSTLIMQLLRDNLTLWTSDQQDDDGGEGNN
Experimental: To study the binding of the fluorescently labelled peptides to 14-3-3, Fluorescence Anisotropy (FA) assays were carried out.[23] In the case of binding, tumbling of the peptide with the attached fluorophore will slow down and the emitted light will be polarized. This will lead to a higher anisotropy.[79] For all experiments, 14-3-3γ was used as it was shown in multiple experiments to be the strongest binding variant suitable for experimental screening.[80] The FAM-labeled peptides and the 14-3-3γ FL protein were diluted in buffer (10 mM HEPES pH 7.4, 150 mM NaCl, 0.1% Tween20, 1 mg mL^−1 BSA).
Dilution series of 14-3-3γ proteins (starting at 500 μM) were made to 10 nM of the FAM-labeled peptides in black, round-bottom 384-microwell (Corning) in a final sample volume of 10 μL. Fluorescence anisotropy values were measured using a Tecan Spark Control at room temperature filter set lex: 485 ± 20 nm, lem: 535 ± 25 nm, mirror: Dichroic 510, flashes: 30, integration time: 40 μs, settle time: 1 μs; gain: optimized per peptide, and Z-position: calculated from well. Wells containing only FAM-peptide were used to set as G-factor. The KD values were obtained from fitting the data using Origin 2020 with a Sigmoid Hill1 function (using the Hill equation). Data shown is the average and standard deviation of triplicates. For dose–response curves on a linear scale seep SI Fig. S2.

[2] = target: T2, full-length (FL) human 14-3-3γ protein (human, UniProt P61981 1-247); assay: fluorescence polarisation; fluorescence anisotropy; dilution series of 14-3-3γ (starting at 500 μM) to 10 nM FAM-labeled peptide; 10 mM HEPES pH 7.4, 150 mM NaCl, 0.1% Tween20, 1 mg/mL BSA; room temperature; Hill fit; triplicates; settings: both partners purified
T2 construct: 14-3-3 gamma, human, full length; also called 14-3-3γ FL
T2 sequence (looked up): T1 sequence (P61981 1-247)

[3] = target: T2, full-length (FL) human 14-3-3γ protein; assay: as above; settings: both partners purified; remark: listed apart in the source

How did the Kd ([1]; n = 3, read-out: Kd) turn out when `CC(C)C[C@H](NC(=O)[C@H](CO)NC(=O)[C@H](CC(=O)O)NC(=O)[C@H](CC(=O)O)NC(=O)CNC(=O)[C@H](CC(N)=O)NC(=O)[C@H](COP(=O)(O)O)NC(=O)[C@@H](NC(=O)[C@H](CCCCN)NC(=O)[C@H](CCCNC(=N)N)NC(=O)[C@H](CC(N)=O)NC(=O)[C@H](CC(N)=O)NC(=O)[C@H](CC(N)=O)NC(=O)[C@H](CC(N)=O)NC(=O)CCCCCNC(=O)c1ccc2c(c1)C(=O)OC21c2ccc(O)cc2Oc2cc(O)ccc21)[C@@H](C)O)C(=O)N[C@@H](Cc1ccccc1)C(N)=O` [Peptide 5] ({5FAM-Ahx}-NNNNRKT[pS]NGDDSLF-NH2) was run?
Its Kd is greater than 500 µM.

And the “Binding in the FA assay (in words)” value [1]?
Its value is “no binding”.

With `CSCC[C@H](NC(=O)[C@H](CCCNC(=N)N)NC(=O)[C@H](CCCNC(=N)N)NC(=O)[C@H](CC(C)C)NC(=O)[C@H](CCC(=O)O)NC(=O)[C@H](CCCNC(=N)N)NC(=O)CNC(=O)CCCCCNC(=O)c1ccc2c(c1)C(=O)OC21c2ccc(O)cc2Oc2cc(O)ccc21)C(=O)N[C@@H](COP(=O)(O)O)C(=O)N[C@@H](CC(=O)O)C(=O)N[C@@H](CCC(=O)O)C(=O)N[C@@H](Cc1ccccc1)C(=O)N[C@H](C(=O)N[C@@H](CC(=O)O)C(=O)N[C@@H](CO)C(=O)N[C@@H](Cc1ccccc1)C(N)=O)C(C)C` [Peptide 7] ({5FAM-Ahx}-GRELRRM[pS]DEFVDSF-NH2) as the molecule, how does the Kd ([1]; n = 3, read-out: Kd) read?
Its Kd is greater than 100 µM.

How did the Kd ([1]; n = 3, read-out: Kd) turn out when `C[C@H](NC(=O)[C@H](CO)NC(=O)[C@@H]1CCCN1C(=O)[C@H](CO)NC(=O)CNC(=O)[C@H](COP(=O)(O)O)NC(=O)[C@H](CCC(=O)O)NC(=O)[C@H](CO)NC(=O)[C@H](CCCNC(=N)N)NC(=O)[C@H](CCCCN)NC(=O)CNC(=O)[C@@H]1CCCN1C(=O)[C@H](C)NC(=O)CCCCCNC(=O)c1ccc2c(c1)C(=O)OC21c2ccc(O)cc2Oc2cc(O)ccc21)C(=O)NCC(=O)NCC(N)=O` [Peptide 8] ({5FAM-Ahx}-APGKRSE[pS]GSPSAGG-NH2) was run?
The Kd was greater than 100 µM.

With `CC[C@H](C)[C@H](NC(=O)CNC(=O)[C@H](C)NC(=O)[C@H](CCC(=O)O)NC(=O)[C@H](CCC(=O)O)NC(=O)CCCCCNC(=O)c1ccc2c(c1)C(=O)OC21c2ccc(O)cc2Oc2cc(O)ccc21)C(=O)NCC(=O)N[C@@H](CC(=O)O)C(=O)N[C@H](C(=O)N1CCC[C@H]1C(=O)N[C@@H](CO)C(=O)N[C@@H](CC(C)C)C(=O)N[C@@H](CCC(=O)O)C(=O)N[C@@H](CC(=O)O)C(=O)N[C@@H](CCC(=O)O)C(=O)N[C@@H](C)C(N)=O)[C@@H](C)OP(=O)(O)O` [Peptide 9] ({5FAM-Ahx}-EEAGIGD[pT]PSLEDEA-NH2) as the molecule, how does the Kd ([1]; n = 3) read?
Its Kd is greater than 500 µM.

And the “Binding in the FA assay (in words)” value [1]?
Its value is “did not bind”.

What does the source list for `CC(C)C[C@H](NC(=O)CCCCCNC(=O)c1ccc2c(c1)C(=O)OC21c2ccc(O)cc2Oc2cc(O)ccc21)C(=O)N[C@@H](Cc1c[nH]cn1)C(=O)N[C@@H](CCC(=O)O)C(=O)N[C@@H](CCC(=O)O)C(=O)N[C@H](C(=O)N1CCC[C@H]1C(=O)N1CCC[C@H]1C(=O)N[C@H](C(=O)N[C@H](C(=O)N[C@@H](CO)C(=O)N[C@@H](CO)C(=O)N[C@@H](CC(=O)O)C(=O)N[C@@H](CO)C(=O)N[C@@H](CCC(=O)O)C(=O)N[C@@H](CCC(=O)O)C(N)=O)[C@@H](C)O)[C@@H](C)OP(=O)(O)O)[C@@H](C)O` [Peptide 10] ({5FAM-Ahx}-LHEETPP[pT]TSSDSEE-NH2)?
Kd ([1]; n = 3): > 500 µM; Binding in the FA assay (in words) [1]: did not bind

B1: BAD pS134 peptide (peptide 6), FAM-labelled (peptide)
peptide: {5FAM-Ahx}-KGLPRPK[pS]AGTATQM-NH2
SMILES: CSCC[C@H](NC(=O)[C@H](CCC(N)=O)NC(=O)[C@@H](NC(=O)[C@H](C)NC(=O)[C@@H](NC(=O)CNC(=O)[C@H](C)NC(=O)[C@H](COP(=O)(O)O)NC(=O)[C@H](CCCCN)NC(=O)[C@@H]1CCCN1C(=O)[C@H](CCCNC(=N)N)NC(=O)[C@@H]1CCCN1C(=O)[C@H](CC(C)C)NC(=O)CNC(=O)[C@H](CCCCN)NC(=O)CCCCCNC(=O)c1ccc2c(c1)C(=O)OC21c2ccc(O)cc2Oc2cc(O)ccc21)[C@@H](C)O)[C@@H](C)O)C(N)=O
notes: Bcl-2-associated agonist of cell death (BAD), seven residues before and after phosphosite 134; source: synthetic peptide, bought: GenScript
For B1, which Kd [2] is on record?
The Kd was 15.9 µM.

B2: Tau pT245 peptide (peptide 2), FAM-labelled (peptide)
peptide: SAKSRLQ[pT]APVPMPD-NH2
modifications: not fully specified (N-terminus)
notes: Tau, seven residues before and after phosphosite 245; numbers count on: P10636-8; source: synthetic peptide, bought: GenScript
With B2 as the molecule, how does the Kd [2] read?
Its Kd is 8.6 µM.

And the Kd [3]?
The Kd was 8.5 ± 0.2 µM.

B3: Tau pS198 peptide (peptide 4), FAM-labelled (peptide)
peptide: {5FAM-Ahx}-SGDRSGY[pS]SPGSPGT-NH2
SMILES: C[C@@H](O)[C@H](NC(=O)CNC(=O)[C@@H]1CCCN1C(=O)[C@H](CO)NC(=O)CNC(=O)[C@@H]1CCCN1C(=O)[C@H](CO)NC(=O)[C@H](COP(=O)(O)O)NC(=O)[C@H](Cc1ccc(O)cc1)NC(=O)CNC(=O)[C@H](CO)NC(=O)[C@H](CCCNC(=N)N)NC(=O)[C@H](CC(=O)O)NC(=O)CNC(=O)[C@H](CO)NC(=O)CCCCCNC(=O)c1ccc2c(c1)C(=O)OC21c2ccc(O)cc2Oc2cc(O)ccc21)C(N)=O
notes: Tau, seven residues before and after phosphosite 198; numbers count on: P10636-8; source: synthetic peptide, bought: GenScript
How did the Kd [2] turn out when B3 was run?
Its Kd is 71 µM.

B4: FOXO3 pS413 peptide (peptide 1), FAM-labelled (peptide)
peptide: {5FAM-Ahx}-GLMQRSS[pS]FPYTTKG-NH2
SMILES: CSCC[C@H](NC(=O)[C@H](CC(C)C)NC(=O)CNC(=O)CCCCCNC(=O)c1ccc2c(c1)C(=O)OC21c2ccc(O)cc2Oc2cc(O)ccc21)C(=O)N[C@@H](CCC(N)=O)C(=O)N[C@@H](CCCNC(=N)N)C(=O)N[C@@H](CO)C(=O)N[C@@H](CO)C(=O)N[C@@H](COP(=O)(O)O)C(=O)N[C@@H](Cc1ccccc1)C(=O)N1CCC[C@H]1C(=O)N[C@@H](Cc1ccc(O)cc1)C(=O)N[C@H](C(=O)N[C@H](C(=O)N[C@@H](CCCCN)C(=O)NCC(N)=O)[C@@H](C)O)[C@@H](C)O
notes: forkhead box O3 (FOXO3), seven residues before and after phosphosite 413; also called FOXO pS413; source: synthetic peptide, bought: GenScript
For B4, which Kd [2] is on record?
Its Kd is 1.6 µM.

B5: Notch 4 pS1847 peptide (peptide 3), FAM-labelled (peptide)
peptide: {5FAM-Ahx}-FPRARTV[pS]VSVPPHG-NH2
SMILES: CC(C)[C@H](NC(=O)[C@H](COP(=O)(O)O)NC(=O)[C@@H](NC(=O)[C@@H](NC(=O)[C@H](CCCNC(=N)N)NC(=O)[C@H](C)NC(=O)[C@H](CCCNC(=N)N)NC(=O)[C@@H]1CCCN1C(=O)[C@H](Cc1ccccc1)NC(=O)CCCCCNC(=O)c1ccc2c(c1)C(=O)OC21c2ccc(O)cc2Oc2cc(O)ccc21)[C@@H](C)O)C(C)C)C(=O)N[C@@H](CO)C(=O)N[C@H](C(=O)N1CCC[C@H]1C(=O)N1CCC[C@H]1C(=O)N[C@@H](Cc1c[nH]cn1)C(=O)NCC(N)=O)C(C)C
notes: Notch-4, seven residues before and after phosphosite 1847; also called NOTCH pS1847; source: synthetic peptide, bought: GenScript
B5 was tested. Which Kd [2] did it give?
The Kd was 70 µM.

For KVTSKCG[pS]LGNIHHK [Tau-pS324 peptide], which Kd [3] is on record?
Its Kd is greater than 100 µM.

With GSRSRTP[pS]LPTPPTR [Tau-pS214 peptide] as the molecule, how does the Kd [3] read?
Its Kd is 16.4 ± 0.9 µM.
